The results in this text go back to patent US7754480B2, “Method of isolating stem cells” (Duke University, priority 1998, dated 2010).

The nature of data set [1]: Solubility and membrane permeability of the aldehyde reagent (BAAA). It counts as physicochemical. How it is done:
Due to the inherent instability of aldehydes in aqueous solution, the reagent is prepared and stored as an acetal. […] Intracellular fluorescence can be used to select cells.

Another data set deals with ALDH in L1210/cpa cells. Description: BAAA staining of cyclophosphamide-resistant ALDH+ L1210/cpa cells, flow cytometry. It counts as cell-based, murine. The source says:
(§1) FIGS. 1A-1D. BAAA staining identifies cells with high levels of ALDH activity. L1210/cpa is a derivative of the L1210 leukemic cell line that overexpresses ALDH. (FIGS. 1A and 1B represent L1210 cells, plus DEAB and minus DEAB, respectively; FIGS. 1C and 1D represent L1210/cpa cells, plus and minus DEAB, respectively).
(§2) K562, L1210 and L1210/cpa cells (ATCC) were maintained in suspension in RPMI 1640 media supplemented with 10% Fetal Calf Serum (FCS) and 5×10^−5 M β-mercaptoethanol.
(§3) To assay whether BAAA would permit the specific selection of ALDH^+ cells, studies initially determined an optimal response dose for the BAAA reagent in a murine cell line previously selected for cylophoshamide-resistance, L1210/cpa, that is known to be ALDH^+ (FIG. 1). The parental cell line, L1210 (FIGS. 1A and 1B) is cylophosphamide-sensitive and ALDH^−. […] In these studies, the BAAA could be used at a final concentration as low as 5 μM. This molar concentration is 10-fold lower than that used with the dansylated reagent.
(In general: A flow cytometer gives signals particle by particle.)

In another data set the test system is L1210 cells. Description: BAAA staining of parental ALDH- L1210 cells, flow cytometry. The data set is classed as cell-based, murine. As to conditions: cyclophosphamide-sensitive parental L1210.
From the text: as §1, §2, §3

Data set [2] concerns human ALDH1 in K562 cells. Description: BAAA staining of K562 cells expressing ALDH1. It counts as cell-based. How it is done:
as §2
Multiple different ALDH isoenzymes exist and these may display different abilities to convert BAAA. […] Therefore, a human cell line known to express ALDH1, K562, was assayed with this novel reagent.

The test system of another data set is ALDH in UCB cells. Description: BAAA staining of mononuclear umbilical cord blood (UCB) cells, flow cytometry. It counts as cell-based, human. As for the experimental part: Human umbilical cord blood (UCB), intended for disposal, was collected into sterile bottles containing anticoagulant citrate buffer. The UCB used in these studies were processed within 24 hours of being harvested. White cells were enriched through a preliminary red cell agglutination where the UCB was diluted 1:2 with Dulbecco's phosphate buffered saline (PBS) at room temperature. These cells were then brought to a final concentration of 1% Hespan (DuPont Pharma, Wilmington, Del.) and were left to stand undisturbed for 1 hour. Non-agglutinated white blood cells were harvested and residual red cells were hemolysed at 37° C. in 0.17 M NH4Cl containing 10 mM Tris-HCl, pH 7.2 and […] EDTA. The recovered cells were washed in IMDM containing 2% FCS and mononuclear cells are then purified using Ficoll-Hypaque (1.077 g/ml). When held overnight, the cells were kept on ice in a 4° C. refrigerated room in IMDM with 20% FCS.
Mononuclear UCB cells were resuspended at 10^6 cells/ml in IMDM containing 2% FCS and were labeled with 1 μM BAAA for 30 min. When used, verapamil was included at […]. After staining, the cells were washed with ice cold staining media and maintained on ice until their analysis and sorting. The cells were then resuspended in staining media with […] 7-aminoactinomycin D (7AAD) (Molecular Probes; Eugene, OR). For antibody staining to permit multiparameter analyses, the cells were resuspended in staining media (100 μl) and antibodies were added directly to the cell suspensions. The cells were incubated on ice for 20 min. and then washed again in ice cold staining media. The cells were then analyzed or sorted on a FAC Star Plus cell sorter (BDIS) equipped with dual Coherent I -90 argon-dye laser. The BAAA was excited at 488 nm and emissions were detected using 515 DF20filter in FL1. Dead and dying cells were excluded on the basis of their high emission in the far red wavelength due to their uptake of 7AAD.
Umbilical Cord Blood (UCB) was chosen for its increasing promise as a source for transplantable hematopoietic stem cells. […]

The subject of data set [3] is MDR efflux pump in UCB cells. Description: Efflux of converted BAAA from UCB cells with or without verapamil. As to conditions: product of the ALDH conversion of BAAA.
Description: When used, verapamil was included at 50 mM. After staining, the cells were washed with ice cold staining media and maintained on ice until their analysis and sorting. The cells were then resuspended in staining media with 10 mg/ml 7-aminoactinomycin D (7AAD) (Molecular Probes; Eugene, OR). For antibody staining to permit multiparameter analyses, the cells were resuspended in staining media (100 μl) and antibodies were added directly to the cell suspensions. The cells were incubated on ice for 20 min. and then washed again in ice cold staining media. The cells were then analyzed or sorted on a FAC Star Plus cell sorter (BDIS) equipped with dual Coherent I -90 argon-dye laser. […] Dead and dying cells were excluded on the basis of their high emission in the far red wavelength due to their uptake of 7AAD.
Since this reagent had never been previously characterized, the susceptibility of converted BAAA to MDR efflux was assayed. Although BODIPY aminoacetaldehyde passes through the cell membrane without active transport, the product of the ALDH conversion (BODIPY aminoacetate) might well be a substrate for the MDR pump.
Data set [4] can be described thus: Stability of BODIPY aminoacetaldehyde diethyl acetal on storage and in 1 N HCl. It counts as physicochemical. As for the experimental part: The aldehyde dehydrogenase substrate is prepared as BODIPY aminoacetaldehyde diethyl acetal and lyophilized in 0.5 micromole aliquots. […] The acetal is then solubilized in DMSO to a final concentration of 5 mM. […] To convert the acetal to an acetaldehyde, aliquots of this solution are brought to a final concentration of 1 N HCl. […] After 2 hours in 1 N HCl, the vast majority of the BODIPY aminoacetaldehyde diethyl acetal has converted to BODIPY aminoacetaldehyde (BAAA), and is then diluted to […] in Dulbecco's phosphate buffered saline (PBS). This stock is added directly to cells prepared in Iscove's Modified Dulbecco's Medium (IMDM) with 2% FCS at concentrations ranging from 1 to 5 μM.)(See also FIG. 6.).

Data set [5] deals with human hematopoietic cells. As to the kind of experiment: Preliminary DAAA staining of human hematopoietic cells, flow cytometry. The data set is classed as cell-based. As to conditions: signal intensity too high in flow cytometry. The source says:
Preliminary studies using DAAA indicate that this reagent is unusable on preparations of human hematopoietic cells because the signal intensity of the reagent is too high to resolve discrete cell populations by flow cytometry. The present invention provides a fluorescent ALDH substrate that is free of the problems associated with DAAA and that can be used in the purification of primitive human hematopoietic cells.

`Cc1cc(C)n2c1C=C1C=CC(CCC(=O)NCC=O)=[N+]1[B-]2(F)F` [BAAA, BODIPY aminoacetaldehyde]: the “solubility in PBS” value in data set [1] is recorded as “freely soluble”. Also, the “molar concentration relative to the dansylated reagent (fold lower)” value with ALDH in L1210/cpa cells (5 μM BAAA vs dansylated reagent) came out at 10 fold. Besides, the “detection of ALDH+ cells” value with ALDH in L1210/cpa cells (L1210/cpa) is reported as “able to detect ALDH^+ cells”. Further, in the data set with ALDH in L1210/cpa cells (continuous cell lines), the “lowest usable final concentration” value amounted to 5 µM. The “fluorescent response to BAAA” value in the data set with L1210 cells is “essentially no response”. The “conversion of BAAA / ALDH positivity” value in data set [2] is “positive for ALDH”. The “molar concentration relative to dansyl aminoacetaldehyde (fold lower)” value in the data set on ALDH in UCB cells (1 μM BAAA vs concentration of DAAA used for murine PHSC) was 50 fold. Moreover, the “optimal concentration for resolving ALDH^br subpopulations” value with ALDH in UCB cells (UCB cells 10^6 cells/ml, IMDM 2% FCS) was 1 µM.

Consider `CC1=CC(C)=[N+]2C1=Cc1ccc(CCC(=O)NCC(=O)O)n1[B-]2(F)F` [BODIPY Aminoacetate, BODIPY aminoacetate], for which the “substrate status for the MDR efflux pump” value in data set [3] was “Substrate for the MDR Efflux Pump”.

Take `CCOC(CNC(=O)CCC1=[N+]2C(=Cc3c(C)cc(C)n3[B-]2(F)F)C=C1)OCC` [BODIPY aminoacetaldehyde diethyl acetal]: in data set [4] (5 mM in DMSO at 4° C.), the “stability of solution in DMSO” value is “up to 1 week”. Besides, the “half life of the acetal” value in data set [4] (1 N HCl, conversion to the acetaldehyde) worked out at 15 min. Moreover, the “stability of lyophilized aliquots” value in data set [4] (lyophilized 0.5 micromole aliquots stored at -20° C.) is “stable indefinitely”.

Turning to `CN(C)c1cccc2c(S(=O)(=O)NCC=O)cccc12` [DAAA, dansyl aminoacetaldyde], the “usability for resolving discrete cell populations” value in data set [5] is reported as “unusable”.

Turning to `CCN(CC)c1ccc(C=O)cc1` [DEAB, diethylbenzaldehyde, reference compound], the “block of the BAAA fluorescent response” value in the data set with ALDH in L1210/cpa cells (10-fold molar excess of DEAB, L1210/cpa) was “totally blocked”. For the same compound, the “inhibition of the BAAA response” value in data set [2] was “entirely inhibited”; in the data set with ALDH in UCB cells (excess DEAB, UCB cells), “inhibited”.
